# According to patent publication US20240108720A1, “SOLE USE OF POLYMERSOME ASSOCIATED ADJUVANT FOR STIMULATING AN IMMUNE RESPONSE” (priority 2021, published 2024):
# B1: Ovalbumin (OVA) (protein, listed as Gallus gallus)
# chain: MGSIGAASMEFCFDVFKELKVHHANENIFYCPIAIMSALAMVYLGAKDSTRTQINKVVRFDKLPGFGDSIEAQCGTSVNVHSSLRDILNQITKPNDVYSFSLASRLYAEERYPILPEYLQCVKELYRGGLEPINFQTAADQARELINSWVESQTNGIIRNVLQPSSVDSQTAMVLVNAIVFKGLWEKAFKDEDTQAMPFRVTEQESKPVQMMYQIGLFRVASMASEKMKILELPFASGTMSMLVLLPDEVSGLEQLESIINFEKLTEWTSSNVMEERKIKVYLPRMKMEEKYNLTSVLMAMGITDVFSSSANLSGISSAESLKISQAVHAAHAEINEAGREVVGSAEAGVDAASVSEEFRADHPFLFCIKHIATNAVLFFGRCVSP
# Legend:
# [1] = tested on: human PBMCs; assay: Cytokine profile in human PBMCs ex vivo (ELISA); format: cell-based
# Description: In the present ex vivo experiment, peripheral blood mononuclear cells (PBMCs) from six healthy donors were stimulated with free CpG-A, free CpG-B (7909) or ACM-CpG-B at increasing concentration (0.62, 1.25, 2.5 and 5 μM). Levels of IL-6 and IFNα secreted into culture supernatant was measured by ELISA. […] The ability to induce both cytokines was advantageous as they stimulate DCs to mature and B cells to proliferate and produce antibody, respectively.
# [2] = tested on: C57BL/6 splenocytes; assay: Cytokine production by splenocytes in vitro (adjuvant activity); format: cell-based, mice; details: culture supernatant, approximately 20 h, 0.125-0.5 μM
# Description: It is known that CpG can induce cytokine production by BALB/c splenocytes in vitro. In this experiment adjuvant effect of ACM polymersomes with CpG were studied. The experimental procedure included: • 1. Spleens harvested from three C57BL/6 mice • 2. 3 million splenocytes added to each well of 96-well plate in complete RPMI. • 3. The following treatment groups were used: untreated, free CpG, ACM-CpG and empty ACM, which were incubated approximately 20 h at 37° C. 5% C02. • 4. Collection of culture supernatants and measurement of IL-6 and IL-12p70 which are indicators of adjuvant effect. • 5. The following 96-well plate format was used for measurements (ms) carried out in triplicates (Table 1)
# [3] = tested on: classical dendritic cells (cDCs); assay: Activation of classical dendritic cells in inguinal lymph nodes after SC injection; format: in vivo, C57BL/6 mice; details: 5 μg SC, inguinal lymph nodes two days after
# Description: Class B CpG binds endosomal Toll-like receptor 9 (TLR9) to induce several immunological effects, including activation of dendritic cells (DCs), production of pro-inflammatory cytokines and B cell differentiation and antibody secretion. These attributes make class B CpG valuable as a vaccine adjuvant. In this study, C57BL/6 mice were subcutaneously (SC) injected with 5 μg free murine CpG 1826 or ACM-CpG 1826 to compare their relative abilities to activate classical dendritic cells (cDCs). Two days after, inguinal lymph nodes (which drain the site of injection) were harvested to assess DC activation. […] Moreover, ACM polymersomes alone were non-immunogenic and thus enhanced DC activation was due to efficient delivery of CpG to endosomal TLR9.
# [4] = tested on: C57bl/6 mice; assay: Immunization with OVA conjugated or encapsulated ACMs, sera tittering by ELISA (Example 13); format: in vivo; details: 4 μg of OVA per injection, sera 21 days after the boost
# Description: C57bl/6 mice were immunized with different OVA formulations: PBS (negative control), free OVA with or without Sigma Adjuvant System (SAS), OVA encapsulated ACMs or OVA conjugated ACMs. Balb/c mice were immunized with different HA formulations: PBS (negative control), free HA, HA encapsulated ACMs or HA conjugated ACMs. […] All immunizations were performed with a same final amount of antigen within each trial: 5-10 μg OVA/injection/mouse or 100-200 ng HA/injection/mouse. Final bleeds were collected 42 days after prime. ELISA was then performed to assess titers: OVA or HA were coated onto MaxiSorp plates (1 μg/ml in carbonate buffer) overnight. Plates were blocked using 3% BSA in PBS for 1 h at RT. All sera were diluted at 1:100 and incubated on plates for 1 h at RT. After 3 washes with PBS+0.05% Tween 20, secondary antibody anti-mouse IgG HRP coupled was incubated at 1:10,000 dilution for 1 h, RT (room temperature). After 3 washes with PBS/Tween 20 buffer, TMB substrate was added and reaction was stopped using 1M HCl. Optical densities were quantified at 450 nm.
# C57bl/6 mice were immunized with the following formulations: a negative control (PBS), free OVA with or without Sigma Adjuvant System (SAS), BD21 encapsulated OVA and BD21 conjugated OVA. […] 21 days after the boost, sera were collected for tittering by ELISA.
# [5] = PBMCs from six healthy donors, 0.62, 1.25, 2.5 and 5 μM
molecule,measurement,setting,value
CpG 7909 [CpG-B],CpG concentration at which IL-6 levels saturate,[1]; PBMCs from six healthy donors,around 1.25 μM
same,IFNα production,[1]; [5],little to none was detected
same,IL-6 secreted into culture supernatant,[1]; [5],low to moderate quantities
CpG ODN1826 [free CpG],IL-6 production,[2],only detected in free CpG- or ACM-CpG-treated splenocytes
same,IL-12 (IL-12p70) production,[2],not detected even in neat culture supernatant
same,CD86 and CD80 activation marker expression on cDC2,[3],significant increase in CD86 and CD80 expression on cDC2
B1,IgG response / titer against OVA (ELISA),[4],not able to elicit an IgG response
